Data as given in US11331375B2, “Compositions and methods for regulating leukocyte adhesion” (University of Virginia Patent Foundation, priority 2015, dated 2022).

Tests used:
[1] = system: VCAM1; assay: VCAM1 expression in isolated mesenteric venules; assay type: cell-based, mouse; settings: EC Panx1 KO venules, TNFα 50 ng/mL, exogenous ATP
Method: Male VECadER^T2+/Panx1^fl/fl mice (Tamoxifen or Peanut oil injected) were euthanized by CO2 asphyxiation and subsequent cervical dislocation. Prior to tissue harvesting, fixation was performed by perfusing room temperature 4% paraformaldehyde (PFA) made in PBS through the heart. The mesentery was immediately excised and 2nd order venules were dissected free of surrounding fat and connective tissue and place in 4% PFA for 30 minutes before transfer to 70% ethanol for paraffin embedding. Paraffin sections (4-5 μm in thickness) were de-paraffinized and processed for immunocytochemistry as previously described^10. […]
Following stimulation with TNFα (in vitro: 10 ng/mL; ex vivo: 50 ng/mL), confluent endothelial cell monolayers or isolated mesenteric venules were homogenized in ice cold Triton extraction buffer (50 mM Tris-HCL, 150 mM NaCl , 5 mM EDTA, 1% deoxycholate, 1% NP-40 and 1% Triton-X100 in phosphate buffered saline and pH adjusted to 7.4) containing protease and phosphatase inhibitors. […] Protein concentration was quantified using the BCA method. […] Membranes were then washed and incubated with LiCOR secondary antibodies (1:10,000) and visualized and quantitated using LiCOR Odyssey. […] Data are expressed as mean±SEM (n=3 independent experiments).

[2] = system: HUVEC; assay: In vitro ATP release assay (luciferin:luciferase), HUVEC; assay type: cell-based, human; settings: HUVEC
Method: (§1) In vitro Human arterial and venous ECs were seeded in 24-well plates pre-coated with 0.2% gelatin and grown to confluency. On the day of experiment, the media was removed from each well and cells were carefully washed twice with warm serum free basal EC medium supplemented with 1% BSA. Cells were then incubated in 300 μL of fresh basal EC medium supplemented with 1% BSA for 30 minutes at 37° C. to allow degradation of extracellular ATP released due to mechanical stimulation during washes. Endogenous ecto-nucleotidases were inhibited by incubating EC monolayers with 300 μM ARL 67156 (Tocris) for 30 minutes at 37° C. Cells were then stimulated with recombinant human TNFα (R&D Systems). For dose response experiments, ECs were incubated with 0.1, 1, 5, 10, 50, or 100 ng/mL recombinant TNFα for 30 minutes at 37° C. For time-course experiments, ECs were stimulated with 10 ng/mL recombinant TNFα for different time points up to 1 hour. In experiments where pharmacological inhibitors were employed, ECs were incubated with antagonists in parallel with ARL 67156 for 30 minutes. To inhibit TNFR1, ECs were incubated with the peptide antagonist of the receptor WP9QY (10 μM; Anaspec). […] Cx hemichannels were inhibited with lanthanum (La^3+; 100 μM; Sigma) and Panx1 channels were blocked with carbenoxolone (CBX; 50 μM; Sigma) and the inhibitory peptide ^10panx1 (200 μM; Genscript). […] The role of caspase activation was assessed by inhibition with the pan-caspase blocker Q-VD-OPh (100 μM; Sigma). Following stimulation with TNFα or vehicle, 150 μL of the cell supernatant was collected and immediately placed into pre-chilled 1.5 mL Eppendorf tubes on ice. All samples were centrifuged at 10,000×g for 5 minutes and 50 μL of each sample was transferred to a white, opaque 96-well plate. Using a FluoStar Omega luminometer, 50 μL of luciferin:luciferase reagent (ATP bioluminescence assay kit HSII; Roche) was injected into each well and luminescence was recorded following a 5s orbital mix. ATP concentration in each sample was calculated from a standard curve for all experiments. Data are presented as a % change in ATP release from baseline (i.e. unstimulated cells) and expressed as mean±SEM (n=5 independent experiments with triplicate measurements).

[3] = system: HSaVEC; assay: In vitro ATP release assay (luciferin:luciferase), HSaVEC; assay type: cell-based, human; settings: HSaVEC
Method: as §1

[4] = system: Cx43 hemichannels; assay: Cell surface biotinylation after BFA, Cx43; assay type: cell-based, human; settings: HUVEC and HSaVEC; BFA 5 μg/mL, 5 hour
Method: (§2) Cell surface biotinylation was performed as described previously^15. To deplete Cx43 hemichannels from the EC plasma membrane, venous and arterial ECs were grown to confluency in 6-well plates (Western blotting) or 24-well plates (ATP release) and treated with the vesicular exocytosis inhibitor brefeldin A (BFA; 5 μg/mL) for 5 hours at 37° C. Cells were washed once with cold 1× PBS and incubated with cold DMEM (without FBS) and 50 μM CBX at 4° C. for 30 minutes. CBX was added to prevent biotin from passing through Panx1 channels, which may label intracellular proteins. Cells were washed with PBS and incubated at 4° C. for 1 hour in cold PBS (1.5 mL/dish) containing EZ-link-sulfo-NHS-LC-biotin (1 mg/mL) and CBX (50 μM). The cells were washed again with PBS and lysed in PBS-T (PBS+0.5-1% Triton-X 100) containing protease inhibitors. Total protein was quantified using the BCA assay and equal amounts of protein were incubated with Streptavidin-agarose beads for 2 hours at 4° C. to pull down biotinylated (cell surface) proteins. Beads were then washed 5 times with 1× PBS-T, pelleted by centrifugation and proteins eluted by incubation with 5x sample buffer. Eluted proteins were subjected to SDS-PAGE and Western blotting for detection of Cx43 and Panx1.

[5] = system: Panx1; assay: Cell surface biotinylation after BFA, Panx1; assay type: cell-based, human; settings: HUVEC and HSaVEC; BFA 5 μg/mL, 5 hour
Method: as §2

[6] = BFA 5 μg/mL for 5 hours, TNFα 10 ng/mL 30 min

SMILES | VCAM1 upregulation in Panx1 KO mice venules [1] | TNFα-induced ATP release after Cx hemichannel depletion [2, 6] | effect of inhibitor on TNFα-induced ATP release ([2]; antagonist 30 min, WP9QY 10 μM, La3+ 100 μM, BFA 5 μg/mL, RuR 20 μM, PP2/PP3 10 μM, Q-VD-OPh 100 μM) | TNFα-induced ATP release after Cx hemichannel depletion [3, 6] | effect of inhibitor on TNFα-induced ATP release ([3]; antagonist 30 min, WP9QY 10 μM, BFA 5 μg/mL, RuR 20 μM, PP2/PP3 10 μM) | expression of Cx43 at the EC surface [4] | expression of Panx1 at the EC surface [5]
Nc1ncnc2c1ncn2[C@@H]1O[C@H](COP(=O)(O)OP(=O)(O)OP(=O)(O)O)[C@@H](O)[C@H]1O [ATP, adenosine 5′ triphosphate] | rescued | – | – | – | – | – | –
C[C@H]1CCC/C=C/[C@@H]2C[C@H](O)C[C@H]2[C@H](O)/C=C/C(=O)O1 [BFA, brefeldin A] | – | unaffected | ruled out the involvement | unaffected | ruled out the involvement | decreased | without significantly altering
